Data taken from ChEMBL document CHEMBL4507327 (2021).
One block for each compound: values may come before it.

Legend:
[1] = target: Epidermal growth factor receptor (Homo sapiens, UniProt P00533); assay: Inhibition of Epidermal Growth Factor (EGF) at 10 µM in the Eurofins-Panlabs radioligand binding assay (Eurofins_assay_225510); conditions: Compound concentration 10.0 uM
[2] = target: Melatonin receptor type 1A (Homo sapiens) (UniProt P48039); assay: Inhibition of Melatonin MT1 at 10 µM in the Eurofins-Panlabs radioligand binding assay (Eurofins_assay_251600); design: ligand concentration 0.05 nM; conditions: Compound concentration 10.0 uM
Rattus norvegicus = species on record: Rattus norvegicus; assay: Inhibition of Thyroid Hormone at 10 µM in the Eurofins-Panlabs radioligand binding assay (Eurofins_assay_285900); assay type: protein assay; conditions: Compound concentration 10.0 uM
[3] = target: Serine/threonine-protein kinase B-raf (Homo sapiens, UniProt P15056); assay: BRAF(BRAFLGY1) Takeda global kinase panel
[4] = target: Cyclin-dependent kinase 16 (Homo sapiens, UniProt Q00536); assay: PCTAIRE1(CD16SGS1) Takeda global kinase panel
[5] = target: Cyclin-dependent kinase 4 (Homo sapiens, UniProt P11802); assay: CDK4(CDK4CGS1) Takeda global kinase panel
[6] = target: Cyclin-dependent kinase 7 (Homo sapiens, UniProt P50613); assay: CDK7(CDK7CGS1) Takeda global kinase panel
[7] = target: Casein kinase II subunit alpha' (Homo sapiens, UniProt P19784); assay: CK2alpha2(C2A2LGK1) Takeda global kinase panel
Ephrin type-A receptor 1 = Ephrin type-A receptor 1 (Homo sapiens, UniProt P21709); assay: EphA1(EPA1LGY1) Takeda global kinase panel
Ephrin type-B receptor 2 = Ephrin type-B receptor 2 (Homo sapiens, UniProt P29323); assay: EphB2(EPB2LGY1) Takeda global kinase panel
[8] = target: Fibroblast growth factor receptor 3 (Homo sapiens, UniProt P22607); assay: FGFR3(FGF3LGF1) Takeda global kinase panel
[9] = target: Cyclin-G-associated kinase (Homo sapiens, UniProt O14976); assay: GAK(GAK1PGF1) Takeda global kinase panel
[10] = target: Homeodomain-interacting protein kinase 4 (Homo sapiens, UniProt Q8NE63); assay: HIPK4(HIP4LHY1) Takeda global kinase panel
[11] = target: Insulin-like growth factor 1 receptor (Homo sapiens, UniProt P08069); assay: IGF1R(IGF1LGF1) Takeda global kinase panel
[12] = target: Mitogen-activated protein kinase kinase kinase 11 (Homo sapiens, UniProt Q16584); assay: MLK3(M311LGF1) Takeda global kinase panel
[13] = target: Mitogen-activated protein kinase kinase kinase 7 (Homo sapiens, UniProt O43318); assay: TAK1(M3K7CHY1) Takeda global kinase panel
[14] = target: Mitogen-activated protein kinase kinase kinase kinase 5 (Homo sapiens, UniProt Q9Y4K4); assay: KHS1(M4K5LGY1) Takeda global kinase panel
[15] = target: Mitogen-activated protein kinase 1 (Homo sapiens, UniProt P28482); assay: ERK2(MAP1LGY1) Takeda global kinase panel
[16] = target: Mitogen-activated protein kinase 14 (Homo sapiens, UniProt Q16539); assay: p38alpha(MP14LGI1) Takeda global kinase panel
[17] = target: Mitogen-activated protein kinase 15 (Homo sapiens, UniProt Q8TD08); assay: ERK7(MP15LGY1) Takeda global kinase panel
[18] = target: Mitogen-activated protein kinase 3 (Homo sapiens, UniProt P27361); assay: ERK1(MAP3LGY1) Takeda global kinase panel
[19] = target: MAP/microtubule affinity-regulating kinase 3 (Homo sapiens, UniProt P27448); assay: MARK3(MAR3LGO5) Takeda global kinase panel
[20] = target: Microtubule-associated serine/threonine-protein kinase 1 (Homo sapiens, UniProt Q9Y2H9); assay: MAST1(MAS1LGE5) Takeda global kinase panel
[21] = target: Microtubule-associated serine/threonine-protein kinase 4 (Homo sapiens, UniProt O15021); assay: MAST4(MAS4LGRD) Takeda global kinase panel
[22] = target: Myosin light chain kinase 2, skeletal/cardiac muscle (Homo sapiens, UniProt Q9H1R3); assay: skMLCK(MYL2LHY1) Takeda global kinase panel
[23] = target: NUAK family SNF1-like kinase 2 (Homo sapiens, UniProt Q9H093); assay: NuaK2(NUA2LHY1) Takeda global kinase panel
[24] = target: Serine/threonine-protein kinase PINK1, mitochondrial (Homo sapiens, UniProt Q9BXM7); assay: PINK1(PIN1PHRE) Takeda global kinase panel
[25] = target: Protein kinase C delta type (Homo sapiens, UniProt Q05655); assay: PKCdelta(PRKDPFP1) Takeda global kinase panel
[26] = target: Serine/threonine-protein kinase D1 (Homo sapiens, UniProt Q15139); assay: PKD1(PRD1LHY1) Takeda global kinase panel
[27] = target: cGMP-dependent protein kinase 2 (Homo sapiens, UniProt Q13237); assay: PKG2(PRG2LHY1) Takeda global kinase panel
[28] = target: Protein-tyrosine kinase 6 (Homo sapiens, UniProt Q13882); assay: Brk(PTK6LGY1) Takeda global kinase panel
[29] = target: Ribosomal protein S6 kinase alpha-5 (Homo sapiens, UniProt O75582); assay: MSK1(R6A5LGY1) Takeda global kinase panel
[30] = target: Serine/threonine-protein kinase SBK1 (Homo sapiens, UniProt Q52WX2); assay: SBK(SBK1LGY1) Takeda global kinase panel
[31] = target: Serine/threonine-protein kinase Sgk3 (Homo sapiens, UniProt Q96BR1); assay: SGK3(SGK3LGY1) Takeda global kinase panel
[32] = target: Serine/threonine-protein kinase SIK3 (Homo sapiens, UniProt Q9Y2K2); assay: QSK(SIK3LGP1) Takeda global kinase panel
SRSF protein kinase 2 = SRSF protein kinase 2 (Homo sapiens, UniProt P78362); assay: SRPK2(SRP2IGRL) Takeda global kinase panel
[33] = target: Serine/threonine-protein kinase 4 (Homo sapiens, UniProt Q13043); assay: MST1(STK4LGF1) Takeda global kinase panel
[34] = target: Serine/threonine-protein kinase TAO2 (Homo sapiens, UniProt Q9UL54); assay: TAO2(TAO2LGF1) Takeda global kinase panel
[35] = target: Tyrosine-protein kinase Tec (Homo sapiens, UniProt P42680); assay: TEC(TEC1CGD1) Takeda global kinase panel
[36] = target: TRAF2 and NCK-interacting protein kinase (Homo sapiens, UniProt Q9UKE5); assay: TNIK [ZC2(TNIKLGF1)] Takeda global kinase panel
[37] = target: Serine/threonine-protein kinase ULK3 (Homo sapiens, UniProt Q6PHR2); assay: ULK3(ULK3LGF1) Takeda global kinase panel
[38] = target: Uncharacterized serine/threonine-protein kinase SBK3 (Homo sapiens, UniProt P0C264); assay: SgK110(SG10LGF1) Takeda global kinase panel
[39] = target: Phosphatidylinositol 4,5-bisphosphate 3-kinase catalytic subunit beta isoform (Homo sapiens, UniProt P42338); assay: PIK3CB(PI3BCGRK) Takeda global kinase panel
[40] = target: Histamine H1 receptor (Homo sapiens) (UniProt P35367); conditions: Compound concentration 10.0 uM
[41] = target: Glutamate receptor ionotropic, kainate (Rattus norvegicus) (UniProt P22756+Q01812+P42260+P42264+Q63273); conditions: Compound concentration 10.0 uM

Microtubule-associated serine/threonine-protein kinase 1, sequence (Q9Y2H9 whole entry): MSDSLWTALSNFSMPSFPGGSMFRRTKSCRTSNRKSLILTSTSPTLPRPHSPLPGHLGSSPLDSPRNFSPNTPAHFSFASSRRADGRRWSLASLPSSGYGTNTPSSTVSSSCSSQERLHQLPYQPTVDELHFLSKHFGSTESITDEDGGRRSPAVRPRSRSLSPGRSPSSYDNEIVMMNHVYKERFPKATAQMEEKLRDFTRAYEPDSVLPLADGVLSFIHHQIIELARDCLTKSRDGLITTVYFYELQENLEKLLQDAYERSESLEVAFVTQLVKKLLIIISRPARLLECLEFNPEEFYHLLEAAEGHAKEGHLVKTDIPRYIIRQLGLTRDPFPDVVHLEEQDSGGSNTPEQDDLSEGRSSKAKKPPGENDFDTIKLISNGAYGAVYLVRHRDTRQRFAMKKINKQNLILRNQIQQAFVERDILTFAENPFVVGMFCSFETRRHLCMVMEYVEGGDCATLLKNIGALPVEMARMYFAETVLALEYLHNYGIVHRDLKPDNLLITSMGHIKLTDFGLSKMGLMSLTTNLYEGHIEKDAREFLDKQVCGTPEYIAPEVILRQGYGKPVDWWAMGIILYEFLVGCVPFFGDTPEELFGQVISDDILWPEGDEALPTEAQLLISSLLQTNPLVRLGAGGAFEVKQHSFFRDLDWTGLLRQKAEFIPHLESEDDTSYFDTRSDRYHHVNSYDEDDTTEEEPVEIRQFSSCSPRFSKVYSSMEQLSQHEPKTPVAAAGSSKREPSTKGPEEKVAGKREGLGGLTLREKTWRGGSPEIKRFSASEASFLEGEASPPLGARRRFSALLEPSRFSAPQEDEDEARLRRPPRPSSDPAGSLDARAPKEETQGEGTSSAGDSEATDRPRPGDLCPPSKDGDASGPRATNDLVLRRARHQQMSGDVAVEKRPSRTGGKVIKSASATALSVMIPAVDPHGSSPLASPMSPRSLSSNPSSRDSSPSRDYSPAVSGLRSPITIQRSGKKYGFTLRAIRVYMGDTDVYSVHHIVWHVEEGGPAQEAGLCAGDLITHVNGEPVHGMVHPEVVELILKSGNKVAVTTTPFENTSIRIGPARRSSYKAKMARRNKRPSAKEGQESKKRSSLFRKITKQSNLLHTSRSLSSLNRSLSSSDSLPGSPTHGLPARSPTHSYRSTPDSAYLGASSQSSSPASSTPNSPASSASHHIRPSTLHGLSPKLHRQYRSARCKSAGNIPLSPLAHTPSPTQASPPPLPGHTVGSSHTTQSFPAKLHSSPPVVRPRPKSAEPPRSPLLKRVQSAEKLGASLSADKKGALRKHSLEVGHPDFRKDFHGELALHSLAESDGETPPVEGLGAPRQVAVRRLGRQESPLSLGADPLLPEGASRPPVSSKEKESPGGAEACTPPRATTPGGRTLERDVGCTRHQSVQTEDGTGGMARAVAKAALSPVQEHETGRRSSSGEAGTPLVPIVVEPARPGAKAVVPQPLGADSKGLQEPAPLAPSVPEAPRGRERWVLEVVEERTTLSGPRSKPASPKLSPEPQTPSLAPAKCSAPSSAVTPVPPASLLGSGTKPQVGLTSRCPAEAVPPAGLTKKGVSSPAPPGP
MAP/microtubule affinity-regulating kinase 3, sequence (P27448 whole entry): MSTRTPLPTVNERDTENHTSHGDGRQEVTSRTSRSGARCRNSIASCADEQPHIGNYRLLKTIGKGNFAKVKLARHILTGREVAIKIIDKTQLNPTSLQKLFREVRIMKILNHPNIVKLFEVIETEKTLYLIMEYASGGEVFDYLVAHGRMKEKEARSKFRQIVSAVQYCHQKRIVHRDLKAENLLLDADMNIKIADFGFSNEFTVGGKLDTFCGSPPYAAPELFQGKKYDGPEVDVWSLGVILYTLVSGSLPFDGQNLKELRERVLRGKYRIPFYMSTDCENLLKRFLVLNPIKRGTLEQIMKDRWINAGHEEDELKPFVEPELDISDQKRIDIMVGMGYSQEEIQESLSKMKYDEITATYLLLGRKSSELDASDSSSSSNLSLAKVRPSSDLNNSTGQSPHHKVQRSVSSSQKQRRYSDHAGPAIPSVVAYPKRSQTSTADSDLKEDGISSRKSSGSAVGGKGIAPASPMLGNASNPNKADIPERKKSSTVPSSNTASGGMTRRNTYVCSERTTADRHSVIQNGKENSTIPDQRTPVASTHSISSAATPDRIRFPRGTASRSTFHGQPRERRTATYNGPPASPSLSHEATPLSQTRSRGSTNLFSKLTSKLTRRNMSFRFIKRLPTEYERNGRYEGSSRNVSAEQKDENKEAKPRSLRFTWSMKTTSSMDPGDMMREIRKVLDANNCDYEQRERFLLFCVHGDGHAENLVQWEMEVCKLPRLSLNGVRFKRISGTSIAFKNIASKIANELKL
Serine/threonine-protein kinase SIK3, sequence (Q9Y2K2 whole entry): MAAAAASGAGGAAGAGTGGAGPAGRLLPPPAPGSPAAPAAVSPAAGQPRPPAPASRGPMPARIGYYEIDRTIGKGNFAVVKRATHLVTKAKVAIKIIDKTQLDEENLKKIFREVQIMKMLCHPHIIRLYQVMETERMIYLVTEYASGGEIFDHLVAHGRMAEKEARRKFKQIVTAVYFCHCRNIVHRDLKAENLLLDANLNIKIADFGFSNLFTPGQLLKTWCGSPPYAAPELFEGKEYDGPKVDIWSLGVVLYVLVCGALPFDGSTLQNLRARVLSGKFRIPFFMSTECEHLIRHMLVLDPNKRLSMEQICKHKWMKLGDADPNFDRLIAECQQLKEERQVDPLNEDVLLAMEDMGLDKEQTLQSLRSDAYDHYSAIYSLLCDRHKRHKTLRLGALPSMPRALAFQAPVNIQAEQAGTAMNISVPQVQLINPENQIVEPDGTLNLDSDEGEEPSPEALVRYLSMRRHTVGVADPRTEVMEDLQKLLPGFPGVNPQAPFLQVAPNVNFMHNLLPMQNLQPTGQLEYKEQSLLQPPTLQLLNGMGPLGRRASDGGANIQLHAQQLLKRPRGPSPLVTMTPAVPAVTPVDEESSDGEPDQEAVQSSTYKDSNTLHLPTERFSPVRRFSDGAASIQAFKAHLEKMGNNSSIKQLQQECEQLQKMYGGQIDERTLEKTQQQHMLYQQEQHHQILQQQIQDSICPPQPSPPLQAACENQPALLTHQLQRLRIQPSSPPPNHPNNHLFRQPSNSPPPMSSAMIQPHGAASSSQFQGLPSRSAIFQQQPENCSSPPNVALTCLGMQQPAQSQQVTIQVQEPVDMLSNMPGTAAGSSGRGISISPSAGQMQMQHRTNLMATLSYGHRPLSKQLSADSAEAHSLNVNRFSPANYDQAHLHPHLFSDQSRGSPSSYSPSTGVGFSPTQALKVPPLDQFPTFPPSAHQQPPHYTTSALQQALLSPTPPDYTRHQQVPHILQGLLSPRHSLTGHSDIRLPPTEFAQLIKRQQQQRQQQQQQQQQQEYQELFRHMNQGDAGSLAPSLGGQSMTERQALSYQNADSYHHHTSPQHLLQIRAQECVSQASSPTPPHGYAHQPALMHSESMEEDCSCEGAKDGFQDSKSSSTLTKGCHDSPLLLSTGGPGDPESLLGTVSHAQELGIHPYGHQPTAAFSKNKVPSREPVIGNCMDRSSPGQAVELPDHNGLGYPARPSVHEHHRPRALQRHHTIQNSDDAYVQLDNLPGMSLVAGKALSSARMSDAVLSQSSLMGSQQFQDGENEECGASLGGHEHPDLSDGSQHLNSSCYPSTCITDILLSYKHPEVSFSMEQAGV
Casein kinase II subunit alpha', sequence (P19784 whole entry): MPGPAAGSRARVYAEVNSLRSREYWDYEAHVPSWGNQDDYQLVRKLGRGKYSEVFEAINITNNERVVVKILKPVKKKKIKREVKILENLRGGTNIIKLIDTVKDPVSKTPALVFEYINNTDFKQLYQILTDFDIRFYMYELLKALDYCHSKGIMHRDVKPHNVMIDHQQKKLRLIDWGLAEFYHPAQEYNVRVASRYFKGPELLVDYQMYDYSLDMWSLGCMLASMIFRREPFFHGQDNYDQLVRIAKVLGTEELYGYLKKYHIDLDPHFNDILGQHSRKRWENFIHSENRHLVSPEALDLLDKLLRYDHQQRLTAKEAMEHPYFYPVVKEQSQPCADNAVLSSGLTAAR
Melatonin receptor type 1A (Homo sapiens), sequence (P48039 whole entry): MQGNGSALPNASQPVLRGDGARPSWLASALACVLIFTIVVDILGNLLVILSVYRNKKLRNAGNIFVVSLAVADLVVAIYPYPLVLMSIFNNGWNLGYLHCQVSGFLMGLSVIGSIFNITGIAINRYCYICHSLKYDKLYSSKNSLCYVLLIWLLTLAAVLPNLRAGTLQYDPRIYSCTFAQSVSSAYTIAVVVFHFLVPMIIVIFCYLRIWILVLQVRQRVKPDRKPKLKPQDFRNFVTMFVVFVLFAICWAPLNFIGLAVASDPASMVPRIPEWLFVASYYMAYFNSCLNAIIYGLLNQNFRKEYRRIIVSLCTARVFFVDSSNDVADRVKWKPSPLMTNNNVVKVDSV
Mitogen-activated protein kinase 14, sequence (Q16539 whole entry): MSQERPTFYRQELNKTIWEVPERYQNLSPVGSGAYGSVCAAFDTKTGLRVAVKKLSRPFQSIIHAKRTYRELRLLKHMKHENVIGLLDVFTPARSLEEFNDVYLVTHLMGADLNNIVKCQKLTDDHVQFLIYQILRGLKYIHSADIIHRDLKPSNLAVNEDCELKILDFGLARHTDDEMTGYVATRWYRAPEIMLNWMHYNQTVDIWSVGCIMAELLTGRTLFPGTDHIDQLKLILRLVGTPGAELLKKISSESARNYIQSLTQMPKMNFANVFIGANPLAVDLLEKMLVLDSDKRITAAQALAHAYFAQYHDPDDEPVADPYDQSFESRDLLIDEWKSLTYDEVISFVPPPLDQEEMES
Cyclin-dependent kinase 4, sequence (P11802 whole entry): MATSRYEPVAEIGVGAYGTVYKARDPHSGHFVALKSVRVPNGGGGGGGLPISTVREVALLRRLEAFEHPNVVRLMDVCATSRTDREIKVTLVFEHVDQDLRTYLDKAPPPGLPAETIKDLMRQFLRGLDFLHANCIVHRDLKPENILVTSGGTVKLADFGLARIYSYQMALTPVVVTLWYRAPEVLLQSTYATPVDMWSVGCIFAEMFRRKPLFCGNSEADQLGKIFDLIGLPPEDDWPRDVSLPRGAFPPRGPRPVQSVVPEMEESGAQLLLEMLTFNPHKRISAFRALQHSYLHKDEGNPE

SMILES: CN1C(=O)[C@@H](N2CCc3cn(Cc4ccccc4)nc3C2=O)COc2ccccc21 [TP-030-1]
inhibition [1]: -3%
inhibition [2]: 45%
inhibition (Rattus norvegicus): 24%
IC50 [3]: 1000 nM
IC50 [4]: 1000 nM
IC50 [5]: 1000 nM
IC50 [6]: 1000 nM
IC50 [7]: 1000 nM
IC50 (Ephrin type-A receptor 1): 1000 nM
IC50 (Ephrin type-B receptor 2): 1000 nM
IC50 [8]: 1000 nM
IC50 [9]: 1000 nM
IC50 [10]: 1000 nM
IC50 [11]: 1000 nM
IC50 [12]: 1000 nM
IC50 [13]: 1000 nM
IC50 [14]: 1000 nM
IC50 [15]: 1000 nM
IC50 [16]: 1000 nM
IC50 [17]: 1000 nM
IC50 [18]: 1000 nM
IC50 [19]: 1000 nM
IC50 [20]: 1000 nM
IC50 [21]: 1000 nM
IC50 [22]: 1000 nM
IC50 [23]: 1000 nM
IC50 [24]: 1000 nM
IC50 [25]: 1000 nM
IC50 [26]: 1000 nM
IC50 [27]: 1000 nM
IC50 [28]: 1000 nM
IC50 [29]: 1000 nM
IC50 [30]: 1000 nM
IC50 [31]: 1000 nM
IC50 [32]: 1000 nM
IC50 (SRSF protein kinase 2): 1000 nM
IC50 [33]: 1000 nM
IC50 [34]: 1000 nM
IC50 [35]: 1000 nM
IC50 [36]: 1000 nM
IC50 [37]: 1000 nM
IC50 [38]: 1000 nM
IC50 [39]: 1000 nM
inhibition [40]: 3%
inhibition [41]: -2%

inhibition [1]: 4%
inhibition [2]: 9%
inhibition (Rattus norvegicus): 21%
IC50 [3]: 1000 nM
IC50 [4]: 1000 nM
IC50 [5]: 1000 nM
IC50 [6]: 1000 nM
IC50 [7]: 1000 nM
IC50 (Ephrin type-A receptor 1): 1000 nM
IC50 (Ephrin type-B receptor 2): 1000 nM
IC50 [8]: 1000 nM
IC50 [9]: 1000 nM
IC50 [10]: 1000 nM
IC50 [11]: 1000 nM
IC50 [12]: 1000 nM
IC50 [13]: 1000 nM
IC50 [14]: 1000 nM
IC50 [15]: 1000 nM
IC50 [16]: 1000 nM
IC50 [18]: 1000 nM
IC50 [19]: 1000 nM
IC50 [20]: 1000 nM
IC50 [21]: 1000 nM
IC50 [22]: 1000 nM
IC50 [23]: 1000 nM
IC50 [24]: 1000 nM
IC50 [25]: 1000 nM
IC50 [26]: 1000 nM
IC50 [27]: 1000 nM
IC50 [28]: 1000 nM
IC50 [29]: 1000 nM
IC50 [30]: 1000 nM
IC50 [31]: 1000 nM
IC50 [32]: 1000 nM
IC50 (SRSF protein kinase 2): 1000 nM
IC50 [33]: 1000 nM
IC50 [34]: 1000 nM
IC50 [35]: 1000 nM
IC50 [36]: 1000 nM
IC50 [37]: 1000 nM
IC50 [38]: 1000 nM
IC50 [39]: 1000 nM
inhibition [40]: 8%
inhibition [41]: 7%
SMILES: CN1C(=O)[C@@H](N2CCc3cn(CC4CCS(=O)(=O)CC4)nc3C2=O)COc2ccccc21 [TP-030n]
IC50 [17]: 1000 nM
